From patent publication US9944608B2, “Herbicidal pyridazinone derivatives” (Syngenta Participations AG, priority 2014, dated 2018)

Columns and labels:
Test in all cases: B1 Post-emergence efficacy, glasshouse pot test
Type in all cases: in vivo
Conditions in all cases: post-emergence application, 1000 g/ha, evaluated after 13 days
[1] = system: Ipomoea hederacea (IPOHE)
Experimental: (§1) B1 Post-Emergence Efficacy Seeds of a variety of test species are sown in standard soil in pots:—Solanum nigrum (SOLNI), Amaranthus retoflexus (AMARE), Setaria faberi (SETFA), Alopecurus myosuroides (ALOMY), Echinochloa crus-galli (ECHCG), Ipomoea hederacea (IPOHE), Lolium perenne (LOLPE). After 8 days cultivation (post-emergence) under controlled conditions in a glasshouse (at 24/16° C., day/night; 14 hours light; 65% humidity), the plants are sprayed with an aqueous spray solution derived from the formulation of the technical active ingredient in acetone/water (50:50) solution containing 0.5% Tween 20 (polyoxyethelyene sorbitan monolaurate, CAS RN 9005-64-5). Compounds are applied at 1000 g/ha. The test plants are then grown in a glasshouse under controlled conditions in a glasshouse (at 24/16° C., day/night; 14 hours light; 65% humidity) and watered twice daily. After 13 days, the test is evaluated for the percentage damage caused to the plant. The biological activities are assessed on a five point scale (5=80-100%; 4=60-79%; 3=40-59%; 2=20-39%; 1=0-19%). A blank value in the table is indicative that the compound was not tested on that species.

[2] = system: Echinochloa crus-galli (ECHCG)
Experimental: as §1

Solanum nigrum (SOLNI) = system: Solanum nigrum (SOLNI)
Experimental: as §1

Setaria faberi (SETFA) = system: Setaria faberi (SETFA)
Experimental: as §1

Lolium perenne (LOLPE) = system: Lolium perenne (LOLPE)
Experimental: as §1

[3] = system: Amaranthus retoflexus (AMARE)
Experimental: as §1

| Structure (SMILES) | IPOHE: percentage damage caused to the plant (five point scale) [1] | ECHCG: percentage damage caused to the plant (five point scale) [2] | SOLNI: percentage damage caused to the plant (five point scale) (Solanum nigrum (SOLNI)) | SETFA: percentage damage caused to the plant (five point scale) (Setaria faberi (SETFA)) | LOLPE: percentage damage caused to the plant (five point scale) (Lolium perenne (LOLPE)) | AMARE: percentage damage caused to the plant (five point scale) [3] |
| --- | --- | --- | --- | --- | --- | --- |
| Cc1nn(C2CC2)c(=O)c(-c2c(Cl)ccc(Cl)c2OCc2ccccc2)c1O [Compound 1.041] | 5 (5=80-100%) | 5 (5=80-100%) | 5 (5=80-100%) | 5 (5=80-100%) | 4 (4=60-79%) | 5 (5=80-100%) |
| Cn1nc([S+](C)[O-])c(O)c(-c2c(F)ccc(Cl)c2OCc2ccccc2)c1=O (stereo not drawn) [Compound 1.080] | 5 (5=80-100%) | 1 (1=0-19%) | 5 (5=80-100%) | 1 (1=0-19%) | 2 (2=20-39%) | 2 (2=20-39%) |
| CSc1nn(C)c(=O)c(-c2c(Cl)ccc(Cl)c2OCc2ccccc2)c1O [Compound 1.086] | 5 (5=80-100%) | 2 (2=20-39%) | 5 (5=80-100%) | 4 (4=60-79%) | 4 (4=60-79%) | 3 (3=40-59%) |
| CCc1nn(C)c(=O)c(-c2c(Cl)ccc(Cl)c2OCc2ccccc2)c1O [Compound 1.007] | 5 (5=80-100%) | 5 (5=80-100%) | 5 (5=80-100%) | 5 (5=80-100%) | 4 (4=60-79%) | 5 (5=80-100%) |
| Cc1nn(C2CC2)c(=O)c(-c2c(F)ccc(Cl)c2OCc2ccccc2)c1O [Compound 1.044] | 5 (5=80-100%) | 5 (5=80-100%) | 5 (5=80-100%) | 5 (5=80-100%) | 5 (5=80-100%) | 5 (5=80-100%) |
| Cn1nc(C(F)(F)F)c(O)c(-c2c(C(F)(F)F)ccc(Cl)c2OCc2ccccc2)c1=O [Compound 1.071] | 5 (5=80-100%) | 4 (4=60-79%) | 5 (5=80-100%) | 5 (5=80-100%) | 3 (3=40-59%) | 3 (3=40-59%) |
| Cc1nn(C)c(=O)c(-c2c(C(F)(F)F)ccc(Cl)c2OCc2ccccc2)c1O [Compound 1.073] | 5 (5=80-100%) | 5 (5=80-100%) | 5 (5=80-100%) | 5 (5=80-100%) | 3 (3=40-59%) | 3 (3=40-59%) |
| Cn1nc(C(F)(F)F)c(O)c(-c2c(F)ccc(Cl)c2OCc2ccccc2)c1=O [Compound 1.074] | 5 (5=80-100%) | 5 (5=80-100%) | 5 (5=80-100%) | 5 (5=80-100%) | 5 (5=80-100%) | 5 (5=80-100%) |
| Cn1nc(C(F)(F)F)c(O)c(-c2c(Cl)ccc(Cl)c2OCc2ccccc2)c1=O [Compound 1.075] | 5 (5=80-100%) | 5 (5=80-100%) | 5 (5=80-100%) | 5 (5=80-100%) | 4 (4=60-79%) | 4 (4=60-79%) |
| CCn1nc(C)c(O)c(-c2c(F)ccc(Cl)c2OCc2ccccc2)c1=O [Compound 1.037] | 5 (5=80-100%) | 5 (5=80-100%) | 5 (5=80-100%) | 4 (4=60-79%) | 5 (5=80-100%) | 5 (5=80-100%) |
| C#CCn1nc(C)c(O)c(-c2c(F)ccc(Cl)c2OCc2ccccc2)c1=O [Compound 1.077] | 5 (5=80-100%) | 5 (5=80-100%) | 5 (5=80-100%) | 5 (5=80-100%) | 5 (5=80-100%) | 5 (5=80-100%) |
| Cn1nc(N)c(O)c(-c2c(Cl)ccc(Cl)c2OCc2ccccc2)c1=O [Compound 1.081] | 4 (4=60-79%) | 2 (2=20-39%) | 5 (5=80-100%) | 4 (4=60-79%) | 2 (2=20-39%) | 3 (3=40-59%) |
| Cn1nc(S(C)(=O)=O)c(O)c(-c2c(F)ccc(Cl)c2OCc2ccccc2)c1=O [Compound 1.079] | 5 (5=80-100%) | 1 (1=0-19%) | 5 (5=80-100%) | 1 (1=0-19%) | 1 (1=0-19%) | 1 (1=0-19%) |
| CSc1nn(C)c(=O)c(-c2c(F)ccc(Cl)c2OCc2ccccc2)c1O [Compound 1.084] | 5 (5=80-100%) | 1 (1=0-19%) | 5 (5=80-100%) | 2 (2=20-39%) | 4 (4=60-79%) | 3 (3=40-59%) |
| Cn1nc(C2CC2)c(O)c(-c2c(Cl)ccc(Cl)c2OCc2ccccc2)c1=O [Compound 1.009] | 5 (5=80-100%) | 5 (5=80-100%) | 5 (5=80-100%) | 5 (5=80-100%) | 5 (5=80-100%) | 5 (5=80-100%) |
| Cn1nc(C2CC2)c(O)c(-c2c(C(F)(F)F)ccc(Cl)c2OCc2ccccc2)c1=O [Compound 1.070] | 5 (5=80-100%) | 5 (5=80-100%) | 5 (5=80-100%) | 5 (5=80-100%) | 5 (5=80-100%) | 5 (5=80-100%) |
| Cc1nn(C)c(=O)c(-c2c(Cl)ccc(F)c2OCc2ccccc2)c1O [Compound 1.014] | 5 (5=80-100%) | 4 (4=60-79%) | 5 (5=80-100%) | 5 (5=80-100%) | 3 (3=40-59%) | 4 (4=60-79%) |
| Cc1nn(C)c(=O)c(-c2cccc(Cl)c2OCc2ccccc2)c1O [Compound 1.003] | 5 (5=80-100%) | 5 (5=80-100%) | 5 (5=80-100%) | 3 (3=40-59%) | 5 (5=80-100%) | 4 (4=60-79%) |
| Cc1nn(C)c(=O)c(-c2c(Cl)ccc(Cl)c2OCc2ccc(Cl)c(Cl)c2)c1O [Compound 1.005] | 5 (5=80-100%) | 5 (5=80-100%) | 5 (5=80-100%) | 5 (5=80-100%) | 5 (5=80-100%) | 5 (5=80-100%) |
